Measurements from patent publication US20210121527A1, “METHODS OF TREATING MINIMAL RESIDUAL CANCER” (ICAHN SCHOOL OF MEDICINE AT MOUNT SINAI, priority 2018, published 2021).

Legend:
[1] = system: HER2^+ metastases and DCCs; assay: Sequential Abemaciclib then LY4 treatment of MMTV-HER2 mice; format: in vivo, mouse; conditions: Abemaciclib 50 mpk 4 weeks; LY4 50 mpk
Experimental: Mice, tumor growth, and tissue processing: The FVB/N-Tg (MMTVneu) mouse strain was obtained from Jackson Laboratories (Sacramento, Calif.). […] Before being used in any experiment, females underwent one round of pregnancy and at least two weeks of no lactation after weaning. Females between 24-32 weeks of age were injected intraperitoneally with vehicle (90% corn oil, 10% ethanol) or LY4 (50 mpk) daily, for two weeks. For the combination treatment, females 24-32 weeks of age were treated daily by oral gavage with Abemaciclib (50 mpk) for 4 weeks before starting the treatment described earlier with LY4. Tumor volumes were measured using the formula (Dxd^2)/2, where D is the longest and d is the shortest diameter. For CTC count, animals were anesthetized and whole blood was extracted by cardiac puncture. Mammary glands, lungs, and tumors were collected and fixed in 10% buffered formalin overnight before paraffin embedding. The bone marrow from the two lower limbs was flushed with a 26 G needle and further processed by Ficoll density gradient centrifugation. For CTC as well as for DTC detection in bone marrow, tissues were depleted of mature hematopoietic cells by anti-mouse antibody-labeled magnetic bead separation (Miltenyi Biotec, San Diego, Calif.) before fixation in formalin for 20 minutes at 4° C.

[2] = system: Braf-mutant melanoma WM35 cells; assay: WM35 melanoma cell viability in 2D and 3D culture, GADD34 western blot; format: cell-based; conditions: after persistent treatment with Abemaciclib
Experimental: FIGS. 12A-12G show proposed mono or combination therapies that include the use of LY4 and experiments showing that the treatment of melanoma cells with the CDK4/6 inhibitor Abemaciclib in combination with LY4 differentially affects in vitro cell viability in 2D and 3D culture. FIG. 12A is a schematic illustration of the rationale for the combination of Abemaciclib and LY4. FIG. 12B is a bar graph showing the results of an in vitro treatment of Braf-mutant melanoma cells (WM35) with 0 nM, 10 nM, or 50 nM Abemaciclib for 1 week followed by 48 hour treatment with 2 μM LY4. FIG. 12C includes images of cells stained with DAPI following pre-treatment with Abemaciclib for 1 week, followed by treatment with 2 μM LY4. 5,000 cells were seeded on matrigel. In FIGS. 12D-12E, WM35 melanoma cells were pre-treated with Abemaciclib for 5 weeks, followed by treatment with LY4 in complete media and Abemaciclib. Cells were stained with Trypan blue to identify viable cells. FIG. 12D is a graph showing Abemaciclib sensitive cells. FIG. 12E is a graph showing Abemaciclib-resistant cells. FIG. 12F show images of cells stained with DAPI following pre-treatment with Abemaciclib for 5 weeks and co-treatment with 2 μM LY4 and Abemaciclib. 1,000 cells were seeded on matrigel. […]

[3] = system: HER2 in MCF10A-HER2 cells; assay: HER2 signaling Western blot and surface biotinylation/endocytosis assays; format: cell-based, human; conditions: 2 μM
Excerpt: Immunoblot analysis: Cells were lysed in RIPA buffer and protein analyzed by immunoblotting as described previously (Ranganathan et al., “Functional Coupling of p38-Induced Up-Regulation of BiP and Activation of RNA-Dependent Protein Kinase-Like Endoplasmic Reticulum Kinase to Drug Resistance of Dormant Carcinoma Cells,” Cancer Res. 66:1702-1711 (2006), which is hereby incorporated by reference in its entirety). Membranes were blotted using the additional following antibodies: P-PERK (T982) (Tenkerian et al., “mTORC2 Balances AKT Activation and eIF2alpha Serine 51 Phosphorylation to Promote Survival Under Stress,” Mol. Cancer Res. 13:1377-1388 (2015), which is hereby incorporated by reference in its entirety), PERK (Santa Cruz, Dallas, Tex.), P-EGFR(Y1148), EGFR, P-AKT(S473), P-S6 (S235/236) (Cell signaling, Danvers, Mass.), GAPDH (Millipore, Darmstadt, Germany), and β-Tubulin (Abcam, Cambridge, Mass.). For induction of ER stress, MCF10A-HER2 cells were plated in low adhesion plates for 24 hours before collection.
Cell surface biotinylation and endocytosis assay: For cell surface biotinylation, Pierce cell surface protein isolation kit was used following manufacturer's instructions with minor changes. Briefly, MCF10A-HER2 cells were serum- and EGF-starved and treated+/−LY4 for 24 hours before being stimulated with +/−EGF (100 ng/ml) for 20′. Then, cells were washed with ice-cold PBS and surface proteins biotinylated for 30 minutes at 4° C. After quenching, cells were harvested and lysed using RIPA buffer. Protein lysates were incubated with NeutrAvidin agarose beads and the bound proteins were released by incubation with SDS-PAGE sample buffer containing DTT (50 mM). For endocytosis assays (Cihil et al., “The Cell-Based L-Glutathione Protection Assays to Study Endocytosis and Recycling of Plasma Membrane Proteins,” J. Vis. Erp. e50867 (2013), which is hereby incorporated by reference in its entirety), cells were treated similarly but before treatment with EGF cell surface proteins were biotinylated. After 20 minute incubation+/−EGF (100 ng/ml) at 37° C. […]

Cc1cc(NC(=O)[C@H](O)c2cc(F)cc(F)c2)ccc1-c1cnc(N)c(C(=O)NC(C)C)c1 [LY4, 2-amino-5-[4-[[(2R)-2-(3,5-difluorophenyl)-2-hydroxy-acetyl]amino]-2-methyl-phenyl]-N-isopropyl-pyridine-3-carboxamide]
GADD34 in primary tumor sections [1]: eliminated the expression of GADD34
viability of Abemaciclib resistant WM35 cells, 3D [2]: additive effect on decreasing viability in 3D cell culture
P-HER2 and total HER2 on the cell surface (surface biotinylation) [3]: decreased the amount of P-HER2 and total HER2 in the cell surface
endocytosed phospho-HER2 and total HER2 (reversible surface biotinylation) [3]: increasing endocytosed phospho-HER2 and total HER2
P-EGFR, P-HER2, P-AKT, P-S6, P-ERK1/2 levels (Western blot) ([3]; starved cells +/- EGF 100 ng/ml, 15 minutes): decreased both the basal and EGF-induced levels of P-EGFR and P-HER2
